Reference: US11266743B2, “Peptide compositions and methods of use thereof” (priority 2017, dated 2022)
Square brackets hold non-standard residues; d marks the D form. Ends that are not written are not given here.

Assays:
Assay type in all cases: cell-based
[1] = system: Hela cells stably transfected with mCherry and GFP1-10; test: Split GFP assay (GFP-11 delivery); conditions: for GFP fluorescence above background / GFP fluorescence level: 10 μM; for GFP-11 delivery: all concentrations and temperatures studied
Method: To test the ability of CPPs to deliver other cargoes, specifically a protease-sensitive peptide cargo, we modified the well-known split-GFP assay. CPPs were tested for the ability to deliver the polar 16-residue GFP-11 peptide across the membrane barrier. This peptide rescues the fluorescence of the cytosolic endogenous, non-fluorescent GFP1-10 protein. Here, we stably transfected Hela cells with a plasmid containing the full length mCherry and the non-fluorescent GFP1-10. Following incubation with CPP-GFP-11 constructs at multiple concentrations and temperatures for 30 minutes in serum free DMEM, cells were analyzed by flow cytometry for mCherry and GFP fluorescence (FIG. 17). Live cells expressing mCherry (˜50% of the total cells) were gated and their GFP fluorescence was analyzed. Unlike the luciferase splice correction assay where a single corrected mRNA transcript serves as template for many molecules of functional luciferase, the split GFP assay is stoichiometric; a single GFP-11 peptide can bind to a single GFP1-10 protein producing a finite fluorescent response.
Hela cells were transfected with p_mCherry-GFP1-10 (Addgene plasmid #78591) using LIPOFECTAMINE® 3000 (ThermoFisher). Single mCherry positive cells were sorted into 96-well plates using a BD™ FACSARIA™ cell sorter and colonies were maintained under G418 selection at […]. Stably transfected cells were plated in 12-well plates at 100,000 cells/well and grown overnight in complete DMEM. Cells were washed in PBS and incubated in 500 μl of CPP-GFP-11 solution at variable concentrations at 23° C. and 37° C. for 30 minutes. The CPP-GFP-11 solution was aspirated and 100 μl of 0.025% trypsin solution was added to each well. After detachment, cells were suspended in 500 μL of PBS+2% FBS and 20 mM HEPES. Cells were analyzed using a BD™ LSRII flow cytometer. Cells displaying a normal morphology were gated and first analyzed for mCherry fluorescence using the 543 nM laser. mCherry+ cells were used to generate a histogram of GFP fluorescence measured with the 488 nM laser.

[2] = system: Hela pTRE-LucIVS2 cells; test: ALAMARBLUE toxicity assay of CPP-PNA705; conditions: 10 μM CPP-PNA705 conjugate, after 24 hours
Method: CPP-PNA705 cytotoxicity was assessed using several methods known in the art. A Lactate Dehydrogenase (LDH) assay (FIG. 5A) measured the acute cytotoxicity and detects LDH released by cells because of membrane damage resulting from exposure to the CPPs. An ALAMARBLUE® assay (FIG. 5B) and a Bicinchoninic Acid (BCA) Assay (FIG. 5C) both measure the impact of exposure after 24 hours. In the ALAMARBLUE®, assay some reduction in metabolic activity was detected in Hela705 cells treated with 20 μM CPP-PNA705 concentrations for 1 hour.
Hela pTRE-LucIVS2 cells were plated in 96-well plates at 10,000 cells/well. After 24 hours, cells were treated with CPP constructs for 1 Hr in sfDMEM at 37° C., washed in PBS, and allowed to recover for 24 hours in 100 μl complete media. 10 μl ALAMARBLUE® (ThermoFisher) was added to each well and cells were incubated fo4r 2 Hrs at 37° C. Reduction of ALAMARBLUE® was determined by fluorescence at […].

[3] = system: HeLa, RAW264.7, HepG2, and MCF-7 cells; test: TAMRA delivery assay (flow cytometry, confocal microscopy); conditions: 0.5 μM CPP-TA + 4.5 μM CPP-C, 30 minutes at 4° C., 22° C., or 37° C.
Method: To determine the effect of the PNA cargo on delivery, we labeled CPPs, lacking the PNA705 cargo, with the fluorophore TAMRA on a C-terminal cysteine residue (CPP-TA) and measured delivery to multiple cell types. TAMRA-labelled CPPs, mixed with unlabeled CPPs at a 1:10 ratio in serum-free DMEM for a final concentration of 5 μM total peptide, was added to HeLa, RAW264.7, HepG2, and MCF-7 cells in 12-well cell culture plates and incubated for 30 minutes at 4° C., 22° C., or 37° C. prior to flow cytometric analysis (FIGS. 9-16). […] Delivery of TAMRA was verified by confocal microscopy for each cell type.
Hela, RAW264.7, HCT116, HepG2, and MCF-7 cells were plated in 12-well plates at 100,000 cells/well. After 24 hours, cells were gently washed in PBS, topped with 500 μl of CPP-TA solution containing 0.5 μM CPP-TA+4.5 uM CPP-C in sfDMEM without phenol red, and incubated for 30 min at either 4° C., 23° C., or 37° C. The incubation solution was aspirated and cells were treated with 100 μl 0.025% Trypsin for 3 minutes at 23° C. 500 μl DMEM containing 2% FBS, 125 nM Sytox Green, and 20 mM HEPES was used to suspend the cells. Cells were transferred to a filter-topped flow cytometry tube and analyzed on a BD™ LSR II flow cytometer. Cells displaying a normal morphology were gated and first analyzed for GFP fluorescence using the 488 nM laser. GFP negative cells were used to generate a histogram of TAMRA fluorescence, measured with the 543 nM laser.
Cells were treated as described above for the TAMRA delivery assay and immediately imaged to avoid artifacts resulting from fixation. The distribution of TAMRA and Sytox Green was analyzed using a confocal scanning Nikon Eclipse Ti2 inverted microscope using a 40× oil-immersion objective. Sytox Green was excited using the 488 nM laser and TAMRA was excited using the 543 nM laser.

[4] = system: S. aureus; test: Radial diffusion in the presence of RBCs; set-up: key: The ↑ represents the improvement in performance that would be desired for a viable in vivo antimicrobial peptide; ↓: The symbol represents a regression in desired behavior; *=p<0.05; **=p<0.01; ***=p<0.001; conditions: change versus parent sequence; paired t-test
Method: Underlay agarose was prepared by adding 5 g of low EEO agarose and 0.03 g of TSB to 500 mL of 10 mM phosphate buffer (pH=7.4). Overlay agarose was prepared by adding 5 g of low EEO agarose and 30 g of TSB to 500 mL of 10 mM phosphate buffer (pH=7.4). Both solutions were heated until the agarose melted and then were autoclaved. To a rectangular, one-well plate, 20 mL of underlay agarose, inoculated with 8×10^6 CFUs of bacteria, was added. A sterile, 96-well plate replicator from Sigma-Aldrich was set in the molten agarose and removed one the agarose solidified. Antibiotic was prepared at 4 times the final desired concentration. For the antibiotic standard, a serial dilution of 3:4 across a 96-well plate was performed followed by 1:4 dilution with PBS. Otherwise, the peptide was diluted to 20 μM with RBCs and/or serum to give between 2% (1×10^8 cells/mL) and 20% (1×10^9 cells/mL). Solutions were incubated with gentle shaking for 30 minutes at 37° C. […]. Overlay was added, and the plate was incubated upside down overnight. Surface growth was cleared, the plates were sterilized with 25% methanol and 5% acetic acid. Zones of inhibition were photographed and analyzed using ImageJ. (FIG. 21)
(§1) The engineered peptide sequences and their derivation from parent sequences is shown, along with the underlying hypothesis described for the first set of peptides (Table 4) and the second set (Table 5). We performed statistical testing for performance in antimicrobial assays in the presence and absence of RBCs, as well as for cytotoxicity. The broth dilution results were tested using a two sample t-test (N=6-22). The radial diffusion results were tested using a paired t-test (N=4). The cytotoxicity results were tested using a paired t-test (N=3). The ↑ represents the improvement in performance that would be desired for a viable in vivo antimicrobial peptide. This corresponds to a decrease in MIC values (increased potency) and decreased cytotoxicity. The symbol represents a regression in desired behavior. (*=p<0.05, **=p<0.01, ***=p<0.001).

[5] = system: human RBCs; test: Hemolysis assay; set-up: key: The ↑ represents the improvement in performance that would be desired for a viable in vivo antimicrobial peptide; ↓: The symbol represents a regression in desired behavior; *=p<0.05; **=p<0.01; ***=p<0.001; conditions: change versus parent sequence; ↑ = improvement (decreased cytotoxicity); paired t-test
Method: Peptide was serially diluted in PBS starting at a concentration of 100 μM. The final volume of each peptide in each well was 50 μL. To each well, 50 μL of RBCs in PBS at 2×10^8 cells/mL was added. As a positive lysis control, 1% TRITON™ was used. The mixtures were incubated at 37° C. for 1 hour, after which they were centrifuged at 1000×g for 5 minutes. After centrifugation, 10 μL of supernatant was transferred to 90 μL of DI H2O in a fresh 96-well plate. The absorbance of released hemoglobin at 410 nm was recorded and the fractional hemolysis was calculated based on the 100% and 0% lysis controls. (FIGS. 22, 23, and 26)
as §1

Row | Substance | Radial Diffusion vs. S. aureus [4] | Hemolysis [5] | further results
1 | CPP-1(D)-GFP-11: D-amino acid version of CPP-1 attached to normal L-amino acid GFP-11 ([dR][dK][dK][dR][dW][dF][dR][dR][dR][dR][dP][dK][dW][dK][dK]RDHMVLHEYVNAAGIT) | – | – | D-form CPP versus L-form CPP, GFP-11 delivery [1]: outperformed CPP-1-GFP-11 under all other conditions
2 | CPP-1-GFP-11: CPP-1 linked to the polar 16-residue GFP-11 peptide (SEQ ID NO: 12) (RKKRWFRRRRPKWKKRDHMVLHEYVNAAGIT) | – | – | GFP fluorescence above background ([1]; 37° C.): 44%; GFP fluorescence above background ([1]; room temperature): 72%
3 | CPP-2-GFP-11: CPP-2 linked to the 16-residue GFP-11 peptide (SEQ ID NO: 12) (GRKKRWFRRRRMKWKKRDHMVLHEYVNAAGIT) | – | – | GFP fluorescence level [1]: background fluorescence levels
4 | CPP-3-GFP-11: CPP-3 linked to the 16-residue GFP-11 peptide (SEQ ID NO: 12) (RIKRRFRRLRPKWKKRDHMVLHEYVNAAGIT) | – | – | GFP fluorescence level [1]: background fluorescence levels
5 | GRKKRWFRRRRMKWKK [CPP-2] | – | – | reduction in metabolic activity [2]: 10%; TAMRA delivery (words, rank order) [3]: CPP-2»CPP-3=CPP-1>CPP-4>TAT=penetratin; GFP-11 delivery [1]: deliver GFP-11 to more cells than Tat and penetratin
6 | KKGWAKKLAFAFGKK [D-KON] | ↓Radial diffusion vs. | – | –
7 | RIKRRFRRLRPKWKK [CPP-3] | – | – | reduction in metabolic activity [2]: little effect; TAMRA delivery (words, rank order) [3]: CPP-2»CPP-3=CPP-1>CPP-4>TAT=penetratin; GFP-11 delivery [1]: deliver GFP-11 to more cells than Tat and penetratin
8 | RRGWAFRRALAYGRR [D-GNS2] | ↑Radial diffusion vs. | ↓Hemolysis** | –
9 | RRGWALRLVLAYGRR [RAT3] | – | ↓Hemolysis* | –
10 | RRGWARRLAFAFAFGRR [RAT6] | – | ↓Hemolysis* | –
11 | RRGWARRLAFAFGRR [D-RAT4] | ↑Radial Diffusion vs. | – | –
12 | RRGWARRLAFAFGRR [RAT4] | ↑Radial Diffusion vs. | ↑Hemolysis* | –
13 | RRGWARRLAFGRR [RAT7] | – | ↑Hemolysis** | –
14 | RRGWARRLFFAYGRR [D-DBS1] | ↑Radial diffusion vs. | ↓Hemolysis* | –
15 | RRGWARRLRLAFAFGRR [RAT5] | ↑Radial Diffusion vs. | ↓Hemolysis* | –
16 | RRWARRLFFAYRR [RAT1] | ↑Radial Diffusion vs. | – | –
17 | RRWNLALTLTYYRR [RAT2] | – | ↓Hemolysis* | –
18 | Tat(D)-GFP-11: D-amino acid version of Tat attached to normal L-amino acid GFP-11 (G[dR][dK][dK][dR][dR][dQ][dR][dR][dR][dP][dP][dQ]RDHMVLHEYVNAAGIT) [reference compound] | – | – | GFP fluorescence ([1]; concentrations lower than 40 μM): just above background
